ChEMBL document CHEMBL5143509, “An efficient strategy for digging protein-protein interactions for rational drug design - A case study with HIF-1α/VHL” (Eur J Med Chem, 2022)
Calls of active or inactive are those of the source. No cut-off for these calls is given here.

System: 786-0
Assay: Cytotoxicity against human 786-0 cells assessed as effect on cell viability at 100 uM measured after 24 hrs by MTT assay
Type: toxicity, cell-based
Settings: 786-0, 24 h

Compound	Activity
CC(=O)N[C@H](C(=O)N1C[C@H](O)C[C@H]1C(=O)N[C@@H](CCC(C)(C)C)c1ccc(-c2scnc2C)cc1)C(C)(C)C	Non-Toxic
CC(=O)N[C@H](C(=O)N1C[C@H](O)C[C@H]1C(=O)N[C@@H](c1ccccc1)c1ccc(-c2scnc2C)cc1)C(C)(C)C	Non-Toxic
CCCC[C@H](NC(=O)[C@@H]1C[C@@H](O)CN1C(=O)[C@@H](NC(C)=O)C(C)(C)C)c1ccc(-c2scnc2C)cc1	Non-Toxic
CC(=O)N[C@H](C(=O)N1C[C@H](O)C[C@H]1C(=O)N[C@@H](CCc1ccncc1)c1ccc(-c2scnc2C)cc1)C(C)(C)C	Non-Toxic
CC(=O)N[C@H](C(=O)N1C[C@H](O)C[C@H]1C(=O)N[C@@H](CCC(=O)O)c1ccc(-c2scnc2C)cc1)C(C)(C)C	Non-Toxic
CC(=O)N[C@H](C(=O)N1C[C@H](O)C[C@H]1C(=O)N[C@@H](CCc1ccc(O)cc1)c1ccc(-c2scnc2C)cc1)C(C)(C)C	Non-Toxic
CCOC(=O)CC[C@H](NC(=O)[C@@H]1C[C@@H](O)CN1C(=O)[C@@H](NC(C)=O)C(C)(C)C)c1ccc(-c2scnc2C)cc1	Non-Toxic
CC(=O)N[C@H](C(=O)N1C[C@H](O)C[C@H]1C(=O)N[C@@H](CCc1ccc(Br)cc1)c1ccc(-c2scnc2C)cc1)C(C)(C)C	Non-Toxic

System: U2OS
Assay: Upregulation of HIF-1 alpha in human U2OS cells at 100 uM incubated for 24 hrs by Western blot analysis
Type: functional, cell-based
Settings: not given

Compound	Activity
CC(=O)N[C@H](C(=O)N1C[C@H](O)C[C@H]1C(=O)N[C@@H](CCC(=O)O)c1ccc(-c2scnc2C)cc1)C(C)(C)C	Active
CC(=O)N[C@H](C(=O)N1C[C@H](O)C[C@H]1C(=O)N[C@@H](CCc1ccc(O)cc1)c1ccc(-c2scnc2C)cc1)C(C)(C)C	Active
O=C(O)CNC(=O)c1c(O)c2ccccc2n(Cc2ccccc2)c1=O	Active
CCOC(=O)CC[C@H](NC(=O)[C@@H]1C[C@@H](O)CN1C(=O)[C@@H](NC(C)=O)C(C)(C)C)c1ccc(-c2scnc2C)cc1	Active
CC(=O)N[C@H](C(=O)N1C[C@H](O)C[C@H]1C(=O)N[C@@H](CCc1ccc(Br)cc1)c1ccc(-c2scnc2C)cc1)C(C)(C)C	Active

System: not listed separately
Assay: Octanol-water partition coefficient, logP of the compound
Type: physicochemical
Settings: not given

Compound	logP
CC(=O)N[C@H](C(=O)N1C[C@H](O)C[C@H]1C(=O)N[C@@H](CCc1ccncc1)c1ccc(-c2scnc2C)cc1)C(C)(C)C	2.18

Same assay, conditions: read-out: logP

Compound	logP
CC(=O)N[C@H](C(=O)N1C[C@H](O)C[C@H]1C(=O)N[C@@H](CCC(C)(C)C)c1ccc(-c2scnc2C)cc1)C(C)(C)C	3.21
CC(=O)N[C@H](C(=O)N1C[C@H](O)C[C@H]1C(=O)N[C@@H](c1ccccc1)c1ccc(-c2scnc2C)cc1)C(C)(C)C	2.55
CCCC[C@H](NC(=O)[C@@H]1C[C@@H](O)CN1C(=O)[C@@H](NC(C)=O)C(C)(C)C)c1ccc(-c2scnc2C)cc1	2.75
CC(=O)N[C@H](C(=O)N1C[C@H](O)C[C@H]1C(=O)N[C@@H](CCC(=O)O)c1ccc(-c2scnc2C)cc1)C(C)(C)C	1.02
CC(=O)N[C@H](C(=O)N1C[C@H](O)C[C@H]1C(=O)N[C@@H](CCc1ccc(O)cc1)c1ccc(-c2scnc2C)cc1)C(C)(C)C	3.08
CC(=O)N[C@H](C(=O)N1C[C@H](O)C[C@H]1C(=O)NCc1ccc(-c2scnc2C)cc1)C(C)(C)C	0.94
CCOC(=O)CC[C@H](NC(=O)[C@@H]1C[C@@H](O)CN1C(=O)[C@@H](NC(C)=O)C(C)(C)C)c1ccc(-c2scnc2C)cc1	1.59
CC(=O)N[C@H](C(=O)N1C[C@H](O)C[C@H]1C(=O)N[C@@H](CCc1ccc(Br)cc1)c1ccc(-c2scnc2C)cc1)C(C)(C)C	4.08

Target: Hypoxia-inducible factor 1-alpha (Homo sapiens) (UniProt Q16665)
Sequence (Q16665 whole entry, looked up): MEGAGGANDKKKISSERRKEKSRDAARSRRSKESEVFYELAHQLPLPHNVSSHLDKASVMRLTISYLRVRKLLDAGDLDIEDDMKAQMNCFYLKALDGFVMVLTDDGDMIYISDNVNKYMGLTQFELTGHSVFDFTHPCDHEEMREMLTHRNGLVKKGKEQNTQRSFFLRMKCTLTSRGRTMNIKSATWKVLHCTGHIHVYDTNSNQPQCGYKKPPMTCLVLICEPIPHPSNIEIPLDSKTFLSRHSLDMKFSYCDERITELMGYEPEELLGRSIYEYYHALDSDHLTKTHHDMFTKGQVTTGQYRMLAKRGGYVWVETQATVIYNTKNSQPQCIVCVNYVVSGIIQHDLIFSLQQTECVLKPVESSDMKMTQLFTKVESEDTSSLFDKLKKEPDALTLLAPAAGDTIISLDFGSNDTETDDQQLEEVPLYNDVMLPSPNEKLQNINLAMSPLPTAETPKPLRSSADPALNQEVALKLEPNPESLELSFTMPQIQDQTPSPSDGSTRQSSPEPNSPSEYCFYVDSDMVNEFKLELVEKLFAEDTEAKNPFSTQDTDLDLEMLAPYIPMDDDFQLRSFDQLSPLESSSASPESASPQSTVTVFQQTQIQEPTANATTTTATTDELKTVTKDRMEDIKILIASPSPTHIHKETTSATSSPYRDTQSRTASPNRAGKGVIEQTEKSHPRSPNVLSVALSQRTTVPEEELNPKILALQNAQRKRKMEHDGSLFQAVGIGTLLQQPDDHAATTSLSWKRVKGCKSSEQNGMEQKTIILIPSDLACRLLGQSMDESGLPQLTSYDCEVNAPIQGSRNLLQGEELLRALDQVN
Assay: Stabilization of HIF-1 alpha in human HeLa cells at 100 uM incubated for 24 hrs by Western blot analysis
Type: cell-based
Settings: not given

Compound	Activity [fold]
CC(=O)N[C@H](C(=O)N1C[C@H](O)C[C@H]1C(=O)N[C@@H](CCC(C)(C)C)c1ccc(-c2scnc2C)cc1)C(C)(C)C	2.22
CC(=O)N[C@H](C(=O)N1C[C@H](O)C[C@H]1C(=O)N[C@@H](c1ccccc1)c1ccc(-c2scnc2C)cc1)C(C)(C)C	2.21
CCCC[C@H](NC(=O)[C@@H]1C[C@@H](O)CN1C(=O)[C@@H](NC(C)=O)C(C)(C)C)c1ccc(-c2scnc2C)cc1	1.4
CC(=O)N[C@H](C(=O)N1C[C@H](O)C[C@H]1C(=O)N[C@@H](CCc1ccncc1)c1ccc(-c2scnc2C)cc1)C(C)(C)C	0.99
CC(=O)N[C@H](C(=O)N1C[C@H](O)C[C@H]1C(=O)N[C@@H](CCC(=O)O)c1ccc(-c2scnc2C)cc1)C(C)(C)C	1.91
CC(=O)N[C@H](C(=O)N1C[C@H](O)C[C@H]1C(=O)N[C@@H](CCc1ccc(O)cc1)c1ccc(-c2scnc2C)cc1)C(C)(C)C	1.79
CC(=O)N[C@H](C(=O)N1C[C@H](O)C[C@H]1C(=O)NCc1ccc(-c2scnc2C)cc1)C(C)(C)C	1
CCOC(=O)CC[C@H](NC(=O)[C@@H]1C[C@@H](O)CN1C(=O)[C@@H](NC(C)=O)C(C)(C)C)c1ccc(-c2scnc2C)cc1	1.64
CC(=O)N[C@H](C(=O)N1C[C@H](O)C[C@H]1C(=O)N[C@@H](CCc1ccc(Br)cc1)c1ccc(-c2scnc2C)cc1)C(C)(C)C	1.88

System: not listed separately
Assay: Octanol/water partition coefficient, logD of the compound at pH 7.4
Type: physicochemical
Settings: not given

Compound	logD
CC(=O)N[C@H](C(=O)N1C[C@H](O)C[C@H]1C(=O)N[C@@H](CCc1ccncc1)c1ccc(-c2scnc2C)cc1)C(C)(C)C	2.7

Same assay, conditions: read-out: logD

Compound	logD
CC(=O)N[C@H](C(=O)N1C[C@H](O)C[C@H]1C(=O)N[C@@H](CCC(C)(C)C)c1ccc(-c2scnc2C)cc1)C(C)(C)C	3.21
CC(=O)N[C@H](C(=O)N1C[C@H](O)C[C@H]1C(=O)N[C@@H](c1ccccc1)c1ccc(-c2scnc2C)cc1)C(C)(C)C	2.55
CCCC[C@H](NC(=O)[C@@H]1C[C@@H](O)CN1C(=O)[C@@H](NC(C)=O)C(C)(C)C)c1ccc(-c2scnc2C)cc1	2.75
CC(=O)N[C@H](C(=O)N1C[C@H](O)C[C@H]1C(=O)N[C@@H](CCC(=O)O)c1ccc(-c2scnc2C)cc1)C(C)(C)C	-0.44
CC(=O)N[C@H](C(=O)N1C[C@H](O)C[C@H]1C(=O)N[C@@H](CCc1ccc(O)cc1)c1ccc(-c2scnc2C)cc1)C(C)(C)C	3.08
CC(=O)N[C@H](C(=O)N1C[C@H](O)C[C@H]1C(=O)NCc1ccc(-c2scnc2C)cc1)C(C)(C)C	0.94
CCOC(=O)CC[C@H](NC(=O)[C@@H]1C[C@@H](O)CN1C(=O)[C@@H](NC(C)=O)C(C)(C)C)c1ccc(-c2scnc2C)cc1	1.59
CC(=O)N[C@H](C(=O)N1C[C@H](O)C[C@H]1C(=O)N[C@@H](CCc1ccc(Br)cc1)c1ccc(-c2scnc2C)cc1)C(C)(C)C	4.08

System: HeLa
Assay: Stabilization of HIF-1 alpha OH in human HeLa cells at 100 uM incubated for 24 hrs by Western blot analysis
Type: cell-based
Settings: not given

Compound	Activity [fold]
CC(=O)N[C@H](C(=O)N1C[C@H](O)C[C@H]1C(=O)N[C@@H](CCC(C)(C)C)c1ccc(-c2scnc2C)cc1)C(C)(C)C	1.21
CC(=O)N[C@H](C(=O)N1C[C@H](O)C[C@H]1C(=O)N[C@@H](c1ccccc1)c1ccc(-c2scnc2C)cc1)C(C)(C)C	1.01
CCCC[C@H](NC(=O)[C@@H]1C[C@@H](O)CN1C(=O)[C@@H](NC(C)=O)C(C)(C)C)c1ccc(-c2scnc2C)cc1	1.4
CC(=O)N[C@H](C(=O)N1C[C@H](O)C[C@H]1C(=O)N[C@@H](CCc1ccncc1)c1ccc(-c2scnc2C)cc1)C(C)(C)C	2.25
CC(=O)N[C@H](C(=O)N1C[C@H](O)C[C@H]1C(=O)N[C@@H](CCC(=O)O)c1ccc(-c2scnc2C)cc1)C(C)(C)C	0.99
CC(=O)N[C@H](C(=O)N1C[C@H](O)C[C@H]1C(=O)N[C@@H](CCc1ccc(O)cc1)c1ccc(-c2scnc2C)cc1)C(C)(C)C	0.75
CC(=O)N[C@H](C(=O)N1C[C@H](O)C[C@H]1C(=O)NCc1ccc(-c2scnc2C)cc1)C(C)(C)C	1
CCOC(=O)CC[C@H](NC(=O)[C@@H]1C[C@@H](O)CN1C(=O)[C@@H](NC(C)=O)C(C)(C)C)c1ccc(-c2scnc2C)cc1	1.31
CC(=O)N[C@H](C(=O)N1C[C@H](O)C[C@H]1C(=O)N[C@@H](CCc1ccc(Br)cc1)c1ccc(-c2scnc2C)cc1)C(C)(C)C	0.91

System: HeLa
Assay: Cytotoxicity against human HeLa cells assessed as effect on cell viability at 100 uM measured after 24 hrs by crystal violet staining based assay
Type: toxicity
Settings: not given

Compound	Activity
CC(=O)N[C@H](C(=O)N1C[C@H](O)C[C@H]1C(=O)N[C@@H](CCC(C)(C)C)c1ccc(-c2scnc2C)cc1)C(C)(C)C	Non-Toxic
CC(=O)N[C@H](C(=O)N1C[C@H](O)C[C@H]1C(=O)N[C@@H](c1ccccc1)c1ccc(-c2scnc2C)cc1)C(C)(C)C	Non-Toxic
CCCC[C@H](NC(=O)[C@@H]1C[C@@H](O)CN1C(=O)[C@@H](NC(C)=O)C(C)(C)C)c1ccc(-c2scnc2C)cc1	Non-Toxic
CC(=O)N[C@H](C(=O)N1C[C@H](O)C[C@H]1C(=O)N[C@@H](CCc1ccncc1)c1ccc(-c2scnc2C)cc1)C(C)(C)C	Non-Toxic
CC(=O)N[C@H](C(=O)N1C[C@H](O)C[C@H]1C(=O)N[C@@H](CCC(=O)O)c1ccc(-c2scnc2C)cc1)C(C)(C)C	Non-Toxic
CC(=O)N[C@H](C(=O)N1C[C@H](O)C[C@H]1C(=O)N[C@@H](CCc1ccc(O)cc1)c1ccc(-c2scnc2C)cc1)C(C)(C)C	Non-Toxic
CC(=O)N[C@H](C(=O)N1C[C@H](O)C[C@H]1C(=O)NCc1ccc(-c2scnc2C)cc1)C(C)(C)C	Non-Toxic
CCOC(=O)CC[C@H](NC(=O)[C@@H]1C[C@@H](O)CN1C(=O)[C@@H](NC(C)=O)C(C)(C)C)c1ccc(-c2scnc2C)cc1	Non-Toxic
CC(=O)N[C@H](C(=O)N1C[C@H](O)C[C@H]1C(=O)N[C@@H](CCc1ccc(Br)cc1)c1ccc(-c2scnc2C)cc1)C(C)(C)C	Non-Toxic

Target: not listed separately
Assay: Binding affinity to VBC (unknown origin) using FAM-DEALA-Hyp-YIPD as substrate by fluorescence polarization assay
Design: species or system Homo sapiens
Settings: not given

Compound	IC50 [nM]
CC(=O)N[C@H](C(=O)N1C[C@H](O)C[C@H]1C(=O)N[C@@H](CCC(C)(C)C)c1ccc(-c2scnc2C)cc1)C(C)(C)C	166
CC(=O)N[C@H](C(=O)N1C[C@H](O)C[C@H]1C(=O)N[C@@H](c1ccccc1)c1ccc(-c2scnc2C)cc1)C(C)(C)C	230
CCCC[C@H](NC(=O)[C@@H]1C[C@@H](O)CN1C(=O)[C@@H](NC(C)=O)C(C)(C)C)c1ccc(-c2scnc2C)cc1	350
CC(=O)N[C@H](C(=O)N1C[C@H](O)C[C@H]1C(=O)N[C@@H](CCc1ccncc1)c1ccc(-c2scnc2C)cc1)C(C)(C)C	223
CC(=O)N[C@H](C(=O)N1C[C@H](O)C[C@H]1C(=O)N[C@@H](CCC(=O)O)c1ccc(-c2scnc2C)cc1)C(C)(C)C	63
CC(=O)N[C@H](C(=O)N1C[C@H](O)C[C@H]1C(=O)N[C@@H](CCc1ccc(O)cc1)c1ccc(-c2scnc2C)cc1)C(C)(C)C	193
CC(=O)N[C@H](C(=O)N1C[C@H](O)C[C@H]1C(=O)NCc1ccc(-c2scnc2C)cc1)C(C)(C)C	204
CCOC(=O)CC[C@H](NC(=O)[C@@H]1C[C@@H](O)CN1C(=O)[C@@H](NC(C)=O)C(C)(C)C)c1ccc(-c2scnc2C)cc1	81
CC(=O)N[C@H](C(=O)N1C[C@H](O)C[C@H]1C(=O)N[C@@H](CCc1ccc(Br)cc1)c1ccc(-c2scnc2C)cc1)C(C)(C)C	189

System: HeLa
Assay: Upregulation of HIF-1 alpha in human HeLa cells at 100 uM incubated for 24 hrs by Western blot analysis
Type: functional, cell-based
Settings: not given

Compound	Activity
O=C(O)CNC(=O)c1c(O)c2ccccc2n(Cc2ccccc2)c1=O	Active

System: U2OS
Assay: Cytotoxicity against human U2OS cells assessed as effect on cell viability at 100 uM measured after 24 hrs by MTT assay
Type: toxicity, cell-based
Settings: not given

Compound	Activity
CCCC[C@H](NC(=O)[C@@H]1C[C@@H](O)CN1C(=O)[C@@H](NC(C)=O)C(C)(C)C)c1ccc(-c2scnc2C)cc1	Non-Toxic
CC(=O)N[C@H](C(=O)N1C[C@H](O)C[C@H]1C(=O)N[C@@H](CCc1ccncc1)c1ccc(-c2scnc2C)cc1)C(C)(C)C	Non-Toxic
CC(=O)N[C@H](C(=O)N1C[C@H](O)C[C@H]1C(=O)N[C@@H](CCC(=O)O)c1ccc(-c2scnc2C)cc1)C(C)(C)C	Non-Toxic
CCOC(=O)CC[C@H](NC(=O)[C@@H]1C[C@@H](O)CN1C(=O)[C@@H](NC(C)=O)C(C)(C)C)c1ccc(-c2scnc2C)cc1	Non-Toxic
